{"source": "patent US20140163096A1", "about": "“METHODS AND COMPOSITIONS FOR TREATING HIV-ASSOCIATED DIARRHEA” (priority 2012, published 2014)", "key": {"mice": {"test_system": "mice", "assay": "13-week oral toxicity study in mice", "settings": "mouse, in vivo", "procedure": "One additional group of 15 animals/sex served as the control and received the vehicle, purified water.\nObservations for morbidity, mortality, injury, and the availability of food and water were conducted twice daily for all animals. Detailed clinical observations for clinical signs were conducted weekly on all main study animals. Body weights were measured and recorded weekly on all animals. Food consumption was measured and recorded weekly on all main study animals. Ophthalmoscopic examinations were conducted pretest and prior to necropsy for all main study animals. Blood samples for clinical pathology evaluations were collected from main study animals in extremis and at termination. […] Beginning on Day 7, a limited gross necropsy examination was performed on any TK animal euthanized in extremis or found dead in an effort to determine the cause of death."}, "[1]": {"assay": "Bacterial reverse mutation assay"}, "[2]": {"settings": "human, in vivo; cited from earlier work"}, "rat bone marrow": {"test_system": "rat bone marrow", "settings": "in vivo"}, "HIV-positive patients": {"test_system": "HIV-positive patients", "settings": "human, in vivo"}}, "data": [{"substance": "Crofelemer", "values": [{"measurement": "clinical pathology, organ weight, and macroscopic effects", "setting": "mice", "value": "observed in both sexes at 1200 mg/kg/day"}, {"measurement": "food consumption effects", "setting": "mice", "value": "evident at 40 mg/kg/day in females and ≧400 mg/kg/day in both sexes"}, {"measurement": "bacterial reverse mutation assay result", "setting": "[1]", "value": "negative"}, {"measurement": "systemic bioavailability", "setting": "[2]", "value": "virtually no systemic bioavailability"}, {"measurement": "rat bone marrow micronucleus assay result", "setting": "rat bone marrow", "value": "negative"}, {"measurement": "adverse events reported in greater than or equal to 1% and less than 2% of patients, at a higher incidence than placebo", "setting": "HIV-positive patients", "value": "dizziness, muscle spasms, myalgia, and pain in extremity"}, {"measurement": "adverse reactions in patients who received doses greater than 250 mg daily", "setting": "HIV-positive patients", "value": "similar"}, {"measurement": "safety profile by baseline CD4 cell count", "setting": "HIV-positive patients", "value": "similar"}]}]}
